Measured values reported in patent publication US7728036B2, “Methods for delivery of catecholic butanes for treatment of tumors” (priority 2003, dated 2010).

How the values were obtained:
[1] = tested on: human mammary carcinoma MX-1 xenograft; details: intratumor injection or topical application of NDGA; cited from earlier work
[2] = Solubility character; format: physicochemical
[3] = tested on: HPV-16 transformed immortal mouse epithelial cells (C3); details: intratumor injection; cited from earlier work

SMILES: CC(Cc1ccc(O)c(O)c1)C(C)Cc1ccc(O)c(O)c1 (stereo not drawn) [NDGA, nordihydroguaiaretic acid]
- Inhibition of tumor growth [1]: Some evidence of inhibition of tumor growth

SMILES: C[C@H](Cc1ccc(OC(=O)CN(C)C)c(OC(=O)CN(C)C)c1)[C@@H](C)Cc1ccc(OC(=O)CN(C)C)c(OC(=O)CN(C)C)c1 [G4N, meso-1,4-bis[3,4-(dimethylaminoacetoxy)phenyl]-(2R,3S)-dimethylbutane]
- Water solubility / hydrophilic or lipophilic character [2]: water-soluble, hydrophilic
- Suppression of tumor growth / tumoricidal activity [3]: some evidence of suppression of tumor growth
